According to patent US8236984B2, “Compound and use thereof in the treatment of amyloidosis” (Pentraxin Therapeutics Ltd., priority 2007, dated 2012):

Key:
[1] = target: T1, L55P variant transthyretin (Homo sapiens, UniProt P02766, L75P); experiment: Inhibition of transthyretin aggregation at acidic pH (turbidity at 400 nm); assay type: biochemical; conditions: L55P 3.6 μM, pH 5.0; for Aggregation of transthyretin, Mean (1:1): ligand 3.6 μM; for Aggregation of transthyretin, Mean (3:1): ligand 10.8 μM
Description: (§1) 3.3.2 Inhibition of transthyretin aggregation by 4ajm15: In pilot experiments, transthyretin aggregates were formed from wild type transthyretin (3.6 μM) after incubation at acidic pH for 3 d at 37° C. (Colon and Kelly, 1992). The efficacy of 4ajm15 as an inhibitor of transthyretin aggregate formation was then compared with other transthyretin ligand compounds. […] After 30 min at 37° C., the pH was adjusted to pH 4.4 (with 0.2 M sodium acetate buffer pH 4.0), and the ˜1 ml mixtures were incubated unstirred for 3 d at 37° C.
(§2) Using the same method the activities of mds84 and 4ajm15 as inhibitors of the aggregation of both wild type transthyretin and the most aggressively aggregating transthyretin variant, L55P, were evaluated in triplicate with both proteins at 3.6 μM and with one (3.6 μM) or 3 equivalents (10.8 μM) of each ligand. Wild type transthyretin was studied at pH 4.4 and L55P at pH 5.0. […] Mean values and standard deviations are shown in Table 2 and in FIG. 4, where results with 1:1 molar ratio are shown cross hatched and 3:1 molar ratio in open bars.

[2] = target: T1, L55P variant transthyretin; experiment: Differential scanning calorimetry of transthyretin with ligand; assay type: binding; conditions: five fold molar excess of ligand
[3] = target: T1, L55P variant transthyretin; experiment: Mass spectrometric analysis of subunit exchange; assay type: biochemical; design: made in house; conditions: L55P variant, decreasing molar ratios of ligand
Description: 4.2 Mass spectrometric analysis of subunit exchange. Recombinant wild type, L55P and V30M transthyretin variants were biosynthetically labelled with isotopes [^15N] and [^15N, ^13C] as previously described (Keetch C A et al, 2005). Immediately prior to analysis, proteins were buffer exchanged into 20 mM ammonium acetate, pH 7.0 using Micro Biospin columns (Bio-Rad, UK). The subunit composition of transthyretin was monitored as a function of time by incubating an equimolar solution (4.4 μM) of [^15N] and [^15N, ^13C] labelled proteins in the presence of 2-fold molar excess of 4ajm15 in DMSO or 2.5% DMSO alone as a control. Each experiment was carried out in triplicate at room temperature and at 4° C. as well, since it is known that subunit exchange is accelerated at low temperatures. Nanoflow ESMS was performed on a QToF2 instrument (Waters/Micromass UK, Ltd.) modified for high mass operation (Sobott et al, (2002)) and calibrated externally using caesium iodide (100 mg/ml). Each solution, 1.5 μl, was electrosprayed from gold coated borosilicate capillaries prepared in-house as described (Nettleton E J, et al, 1998). To preserve the non-covalent interactions in the transthyretin tetramer, the MS parameters applied were: capillary voltage 1.6 kV, sample cone 160 V, extractor cone 20 V, ion transfer stage pressure 7.0×10 ^−3 mbar, quadrupole analyzer pressure 9.5×10^−4 mbar and ToF analyzer pressure 1.7×10^−6 mbar. Data were processed with MassLynx software (Waters/Micromass UK, Ltd.) and are presented with minimal smoothing and without background subtraction.
This most unstable transthyretin variant rapidly undergoes spontaneous and extensive subunit exchange, as illustrated in FIG. 8. FIGS. 9-11 show the effects of decreasing molar ratios of mds84 on inhibition of subunit exchange. […] At lower molar ratios of mds84 some exchange takes place but the transthyretin molecules which bind mds84 are still completely stabilized.

[4] = target: T2, wild type transthyretin (Homo sapiens, UniProt P02766); experiment: Inhibition of transthyretin aggregation at acidic pH (turbidity at 400 nm); assay type: biochemical; design: isolated from pooled normal human plasma, was obtained from Scipac; purchased Scipac Ltd, Sittingbourne, Kent, UK; host or cells: pooled normal human plasma; conditions: wild type 3.6 μM, pH 4.4, 3 d 37° C.; for Aggregation of transthyretin, Mean (1:1): ligand 3.6 μM; for Aggregation of transthyretin, Mean (3:1): ligand 10.8 μM
Description: 3.3.1 Wild type transthyretin. The purified wild type transthyretin (liquid and lyophilised) used in these experiments, isolated from pooled normal human plasma, was obtained from Scipac, (Sittingbourne, Kent, UK). Protein concentration was determined by absorbance at 280 nm after correction for light scattering at 320 nm using the absorption coefficient E1 cm^1%=14.0. […] Nano electrospray ionisation mass spectrometry confirmed the presence of normal and cysteinylated transthyretin monomers (Terazaki et al, 1998) under denaturing conditions, and solvent-bound transthyretin tetramer (Nettleton et al, 1998) under mild desolvation conditions.
as §1, §2

[5] = target: T2, wild type transthyretin; experiment: Differential scanning calorimetry of transthyretin with ligand; assay type: binding; design: isolated from pooled normal human plasma, was obtained from Scipac; purchased Scipac Ltd, Sittingbourne, Kent, UK; host or cells: pooled normal human plasma; conditions: five fold molar excess of ligand
[6] = target: T3, transthyretin (Homo sapiens, UniProt P02766); experiment: Intrinsic fluorescence quenching of transthyretin by ligand titration; assay type: binding; conditions: 1 μM transthyretin, PBS pH 7.4, ligand 0-2 μM, excitation 280 nm, 20° C.
T3 construct: Native tetrameric transthyretin was purified from fractionated human plasma; from tissue; host or cells: human plasma
Description: 3.2.1. Binding of 4ajm15 and mds84 by transthyretin. The interactions between the ligands 4ajm15 or mds84 and transthyretin were studied by monitoring intrinsic fluorescence in the emission range 300-500 nm on excitation at 280 nm using a Perkin Elmer LS55 fluorimeter and a standard 1 cm path length quartz cell at 20° C. Quenching of tryptophan was achieved by titrating 1 μM transthyretin in PBS, pH 7.4 with increasing concentrations of each ligand in the range 0-2 μM (FIG. 2A). […] At the same time the changes in 4ajm15 fluorescence upon binding to the protein were monitored in the emission range 400-600 nm and excitation at 340 nm that is the wavelength specific for 4ajm15 excitation. In these conditions, accumulation of the spectra highlights an isosbestic point at 483 nm (FIG. 2B). The same results were achieved by using mds84 (not shown). The results of the titration of 4ajm15 in presence and absence of transthyretin support a model of binding in which both the binding sites are simultaneously occupied by the palindromic ligand.
In each case increasing concentrations of ligand (0-2 μM) were added to 1 μM protein. The arrow in FIG. 2B indicates the isosbestic point at 483 nm occurring on formation of the protein ligand complex. […] The percent quenching represents ΔF/F0 where F0 is fluorescence intensity prior to the addition of ligands and AF is the decrease in fluorescence at a given ligand concentration.

Aggregation of transthyretin, Mean (1:1) [1]	Aggregation of transthyretin, Mean (3:1) [1]	Tm of L55P variant transthyretin with the ligand [2]	increase in Tm of L55P variant transthyretin [2]	ligand bound per mole of transthyretin for complete stabilization [3]	Aggregation of transthyretin, Mean (1:1) [4]	Aggregation of transthyretin, Mean (3:1) [4]	Tm of wild type transthyretin with the ligand [5]	increase in Tm of wild type transthyretin [5]	intrinsic fluorescence of transthyretin remaining after titration [6]	SMILES
32 per cent of control with DMSO alone	16.8 per cent of control with DMSO alone	98.3 °C	3.7 °C	two moles	12.5 per cent of control with DMSO alone	1.14 per cent of control with DMSO alone	104.9 °C	4.6 °C		O=C(O)c1ccc2nc(-c3cc(Cl)cc(Cl)c3)oc2c1 [Fx-1006A, 2-(3,5-dichlorophenyl)benzo oxazole-6-carboxylic acid, reference compound]
55 per cent of control with DMSO alone	22 per cent of control with DMSO alone				25 per cent of control with DMSO alone	1.2 per cent of control with DMSO alone			60%	N[C@@H](Cc1cc(I)c(Oc2cc(I)c(O)c(I)c2)c(I)c1)C(=O)O [T4, 3,5,3′,5′-Tetraiodo-L-Thyronine, reference compound]
